The test has as its target T1, Sfp (Bacillus subtilis, UniProt P39135).
T1 sequence (P39135 1-224): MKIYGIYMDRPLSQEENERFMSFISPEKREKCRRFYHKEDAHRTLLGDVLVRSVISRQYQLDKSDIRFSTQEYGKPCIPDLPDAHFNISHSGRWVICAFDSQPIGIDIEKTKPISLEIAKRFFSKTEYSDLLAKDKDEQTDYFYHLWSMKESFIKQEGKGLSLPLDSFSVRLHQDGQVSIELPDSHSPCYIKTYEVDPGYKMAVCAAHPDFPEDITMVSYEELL
Briefly: ESI-MS of acyl-phosphopantetheine transfer to apo-ACPtcsA. As to conditions: co-substrate apo-ACPtcsA (ACP domain of TcsA). The test is classed as biochemical.

From article PMC3030623 (Journal of the American Chemical Society, 2010) come the findings set out here.

`CC/C=C/C(=O)SCCNC(=O)CCNC(=O)[C@H](O)C(C)(C)COP(=O)(O)OP(=O)(O)OC[C@H]1O[C@@H](n2cnc3c(N)ncnc32)[C@H](O)[C@@H]1OP(=O)(O)O` [compound 11, trans-2-pentenyl-CoA]: the “ESI-MS of acyl-phosphopantetheine transfer to apo-ACPtcsA” value is reported as “we biochemically converted apo-ACPtcsA to trans-2-pentenyl-ACPtcsA”.
